Assay results: paper PMC10191619, “Bilirubin gates the TRPM2 channel as a direct agonist to exacerbate ischemic brain damage” (Neuron, 2023)

Key:
[1] = system: tMCAO Trpm2+/+ mice; assay: tMCAO ischemia model, infarct volume by TTC staining, Trpm2+/+ mice; assay type: in vivo, mouse; conditions: for infarct volume: 24 h after tMCAO
[2] = biological target: T1, human TRPM2 (hTRPM2) channel (Homo sapiens, UniProt O94759); assay: Whole-cell patch-clamp of TRPM2 currents (voltage ramps) in HEK-hTRPM2 cells; assay type: cell-based
T1 construct: expressed in transfected cells; host or cells: HEK293 cells with tetracycline-inducible expression of hTRPM2 (HEK-hTRPM2)
T1 sequence (O94759 whole entry): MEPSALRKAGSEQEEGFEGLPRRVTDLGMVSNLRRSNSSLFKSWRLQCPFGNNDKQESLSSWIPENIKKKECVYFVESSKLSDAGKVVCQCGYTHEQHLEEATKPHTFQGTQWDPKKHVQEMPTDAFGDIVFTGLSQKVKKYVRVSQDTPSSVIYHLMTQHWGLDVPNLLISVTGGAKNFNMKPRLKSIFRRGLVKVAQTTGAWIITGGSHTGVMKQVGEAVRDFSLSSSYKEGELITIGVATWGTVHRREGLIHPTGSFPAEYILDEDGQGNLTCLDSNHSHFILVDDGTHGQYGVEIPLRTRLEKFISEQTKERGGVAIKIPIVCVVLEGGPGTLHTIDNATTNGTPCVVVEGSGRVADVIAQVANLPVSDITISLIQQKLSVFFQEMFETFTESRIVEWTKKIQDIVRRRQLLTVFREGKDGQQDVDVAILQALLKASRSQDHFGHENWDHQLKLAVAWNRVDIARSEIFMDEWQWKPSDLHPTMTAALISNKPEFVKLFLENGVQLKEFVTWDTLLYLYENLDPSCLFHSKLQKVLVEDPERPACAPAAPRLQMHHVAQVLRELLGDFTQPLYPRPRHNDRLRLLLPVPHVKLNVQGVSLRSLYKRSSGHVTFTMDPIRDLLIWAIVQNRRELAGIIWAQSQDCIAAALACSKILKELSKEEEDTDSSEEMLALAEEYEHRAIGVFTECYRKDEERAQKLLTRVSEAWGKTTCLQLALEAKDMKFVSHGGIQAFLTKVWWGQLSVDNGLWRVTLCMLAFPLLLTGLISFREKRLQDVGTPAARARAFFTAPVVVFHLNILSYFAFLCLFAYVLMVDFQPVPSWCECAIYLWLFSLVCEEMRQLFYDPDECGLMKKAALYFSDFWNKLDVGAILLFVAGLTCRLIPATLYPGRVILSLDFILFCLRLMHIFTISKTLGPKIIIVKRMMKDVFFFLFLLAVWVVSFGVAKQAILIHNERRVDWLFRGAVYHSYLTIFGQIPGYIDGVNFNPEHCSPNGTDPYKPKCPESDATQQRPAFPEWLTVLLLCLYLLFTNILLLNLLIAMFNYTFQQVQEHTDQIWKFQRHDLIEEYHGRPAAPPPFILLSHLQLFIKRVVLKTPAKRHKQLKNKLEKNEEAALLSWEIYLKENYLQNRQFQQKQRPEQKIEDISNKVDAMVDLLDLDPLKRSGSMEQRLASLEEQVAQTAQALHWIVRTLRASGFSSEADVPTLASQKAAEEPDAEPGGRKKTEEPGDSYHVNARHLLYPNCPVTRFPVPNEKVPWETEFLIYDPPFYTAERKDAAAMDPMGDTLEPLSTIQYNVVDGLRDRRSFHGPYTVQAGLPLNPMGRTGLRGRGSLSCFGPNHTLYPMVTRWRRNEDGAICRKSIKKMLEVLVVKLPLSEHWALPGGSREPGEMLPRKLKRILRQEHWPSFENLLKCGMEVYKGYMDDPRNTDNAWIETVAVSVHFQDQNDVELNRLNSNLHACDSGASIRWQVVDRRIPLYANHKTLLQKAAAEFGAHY
Experimental: (§1) Human embryonic kidney 293 (HEK293) cells with tetracycline-inducible expression of human TRPM2 channel (hTRPM2) were cultured in a mixed medium containing DMEM/ F-12 (Gibco, USA) and 10% fetal bovine serum (Gibco, USA) as well as blasticidin (50 μg/ml, Invivogen, USA) and zeocin (0.4 mg/ml, Invivogen, USA). The expression of hTRPM2 was induced by substituting blasticin and zeocin for tetracycline (1 μg/ml, Sigma, USA) 24-48 hours before use. TRPM2 channel mutants were transiently expressed in HEK293T cells by transfection with using Lipofectamine 3000. Briefly, HEK293T cells were transiently transfected with cDNAs encoding the mutant hTRPM2 channel. The cDNA for GFP was co-transfected as a marker for identification of the transfected cells for electrophysiological experiments 16-24 hours after transfection. All the cells were seeded on 96-well coverslips (3 x 3 mm, WHB) and cultured at 37 °C under a humidified atmosphere containing 5% CO2.
Coronal cortical slices were transferred into the recording chamber and continuously perfused at room temperature with ACSF oxygenated with 95% O2 and 5% CO2. Cortical pyramidal neurons were visualized by an upright microscope (Carl Zeiss) equipped with a CCD monochrome video camera (IR-1000, DAGE-MTI) and identified by their localization in Layer V. Electrophysiology data were sampled (50 kHz) and lowpass filtered (5kHz four-pole Bessel filter) by a MultiClamp 700B dual channel amplifier (Molecular Devices). The patch electrodes were pulled from borosilicate capillary glass (1.5 mm outer diameter; 0.86 mm inner diameter; World Precision Instruments, USA) with a horizontal multi-step micropipette puller (Model, P-1000, Sutter Instrument). […] After forming >1 GΩ resistance seal in cell-attached configuration, we broke the patch membrane and kept the neurons at -64 mV and then performed whole-cell current-clamp recordings. Cells requiring holding current > -150 pA at -60 mV were discarded. The resting membrane potential (Vrest) was tested in I = 0 configuration. Intrinsic excitability was tested by 500 ms long current steps between -200 and +400 pA with 50-pA increments in the presence of blockers for AMPA, NMDA, and GABA receptors (APV, 50 μM; NBQX, 10 μM; bicuculine 10 μM, strychnine 1 μM). Only one recording was conducted per brain slice. For whole-cell or single channel recordings from transfected HEK-293T cells, the coverslips were placed in a culture dish (35 × 35 mm, Sorfa) containing HEPES based extracellular solution (ECS) and recorded by patch-clamp technique. Cells were visualized by using the phase-contrast mode of an inverted microscope (TE-2000U; Nikon, Japan) and the patch pipette was positioned on the cells using a motorized micromanipulator (MP-225; Sutter) under the microscope. The transfected cells were voltage-clamped at 0 mV and subjected to voltage ramps from -100 mV to +100 mV (500 ms duration) every 5 s. The basal ramp current (i.e., the trace when the leak current is stable after membrane rupture) before channel activation were used for leak subtraction of all subsequent ramp currents. Each coverslip was recorded only once with different drug exposures. Single-channel recordings were carried out under outside-out configuration, using pipettes with resistance of 6-8 MΩ. The excised patches were voltage-clamped from -80 mV to +80 mV (in 20 mV increasement) to generate the current-voltage (I-V) relationship of single channel currents from which their main conductance was calculated from the slope by linear regression of the mean current amplitude at different potentials. Single-channel recordings of the cortical neurons were performed by adding 4-AP, TEA-Cl, CsCl2 and TTX to block sodium channel, potassium channel and calcium channel.
The cutting solution for brain slices contained the following (in mM): 87 NaCl, 75 sucrose, 2.5 KCl, 10 glucose, 1.25 NaH2PO4, 2 Na-pyruvate, 3 myo-inositol, 0.5 ascorbic acid, 26 NaHCO3,7 MgCl2, and 0.1 CaCl2 (pH 7.4; 290-320 mOsm).

[3] = system: hTRPM2 pore mutants (P983A, D987A, A1046C, N1049C); assay: Whole-cell patch-clamp, pore mutants; assay type: cell-based, human; conditions: bilirubin
[4] = biological target: T1, human TRPM2 (hTRPM2) channel; assay: Single-channel outside-out recordings from HEK-hTRPM2 cells; assay type: cell-based
Experimental: as §1
Coronal cortical slices were transferred into the recording chamber and continuously perfused at room temperature with ACSF oxygenated with 95% O2 and 5% CO2. Cortical pyramidal neurons were visualized by an upright microscope (Carl Zeiss) equipped with a CCD monochrome video camera (IR-1000, DAGE-MTI) and identified by their localization in Layer V. Electrophysiology data were sampled (50 kHz) and lowpass filtered (5kHz four-pole Bessel filter) by a MultiClamp 700B dual channel amplifier (Molecular Devices). The patch electrodes were pulled from borosilicate capillary glass (1.5 mm outer diameter; 0.86 mm inner diameter; World Precision Instruments, USA) with a horizontal multi-step micropipette puller (Model, P-1000, Sutter Instrument). […] After forming >1 GΩ resistance seal in cell-attached configuration, we broke the patch membrane and kept the neurons at -64 mV and then performed whole-cell current-clamp recordings. Cells requiring holding current > -150 pA at -60 mV were discarded. The resting membrane potential (Vrest) was tested in I = 0 configuration. […] For whole-cell or single channel recordings from transfected HEK-293T cells, the coverslips were placed in a culture dish (35 × 35 mm, Sorfa) containing HEPES based extracellular solution (ECS) and recorded by patch-clamp technique. […] Each coverslip was recorded only once with different drug exposures. […] The excised patches were voltage-clamped from -80 mV to +80 mV (in 20 mV increasement) to generate the current-voltage (I-V) relationship of single channel currents from which their main conductance was calculated from the slope by linear regression of the mean current amplitude at different potentials. […]

[5] = Serum and CSF TB / UCB measurement after bilirubin injection and tMCAO; assay type: in vivo, mouse
Experimental: Trpm2^+/+, Trpm2^-/- and D1066A C57BL/6 mice were anesthetized by intraperitoneal injection of pentobarbital (55 mg/kg) 24 hours before tMCAO operation, and then fixed in the stereotactic setup (RWD Life Science). The skin above the skull from the base of the neck up to in between the eyes was cut open. A hole directly above the right ventricle was made with a grinding drill to allow insertion of the micro syringe into the lateral ventricle (coordinates: 1.1 mm laterally to the right and 0.5 mm posterior of the bregma, 2.5 mm deep). CSF was collected by using the micro injection pump (speed: 0.2 μl/min), after which the syringe was withdrawn, and the skin was sutured. The mice were removed from the stereotactic setup and 50 μl blood was taken through the orbital venous plexus. Mice were then placed on 37 °C heating blanket till they regained consciousness and returned to the cage. 1 or 24 hours after tMCAO, animals were anesthetized using a 2% isoflurane-oxygen mixture. CSF and blood were collected in the same way before sacrifice. All samples were centrifuged at 3000 r/min. Total bilirubin concentration of supernatants was measured with the Bilirubin Reagent Kit (Sigma). Samples were transferred to a 96-plates and mixed with reaction solution before measurements of their absorbance were made at 530 nm 10 minutes later. UCB concentration was measured with UnaG, a bilirubin-inducible fluorescent protein from Japanese eel muscle. For standard calibration curve of fluorescence intensity, a 100 μl reaction mixture containing 50 μl UnaG solution (1 μM) and 50 μl artificial bilirubin solution with concentration gradient (1.4278 μM, 0.7139 μM, 0.3573 μM, 0.1785 μM, 0.0893 μM and 0 μM) was prepared. After 10 minutes of reaction, the fluorescence intensity was detected by microplate reader (Synergy H1M, Bio Tek) with fluorescence filters for excitation and emission wavelengths of 485 and 528 nm, respectively. Serum and CSF samples were diluted 20-fold with PBS and fluorescence intensity was measured. The UCB levels were extrapolated from the standard curve.

[6] = system: cortical neurons in adult Trpm2+/+ brain slices; conditions: bilirubin, 1 h of incubation, n = 6
[7] = system: hTRPM2 Ca2+ binding site mutants; assay: Whole-cell patch-clamp, Ca2+ binding site mutants; assay type: cell-based, human; conditions: mutations disabling binding sites for Ca2+
[8] = biological target: T2, hTRPM2 R302A/R358A (Homo sapiens, UniProt O94759, R302A/R358A); assay: Whole-cell patch-clamp, N-terminal ADPR-binding site mutant; assay type: cell-based; conditions: bilirubin
T2 construct: expressed in transfected cells; host or cells: HEK293T cells, transient transfection (Lipofectamine 3000), GFP cDNA co-transfected as a separate marker
T2 sequence (O94759 whole entry R302A/R358A): as the sequence (O94759 whole entry) above, with R302A, R358A counted along it
Experimental: as §1, with “All the cells were seeded on 96-well coverslips (3 x 3 mm, WHB) and cultured at 37 °C under a humidified atmosphere containing 5% CO2.” left out
(§2) Coronal cortical slices were transferred into the recording chamber and continuously perfused at room temperature with ACSF oxygenated with 95% O2 and 5% CO2. […] For whole-cell or single channel recordings from transfected HEK-293T cells, the coverslips were placed in a culture dish (35 × 35 mm, Sorfa) containing HEPES based extracellular solution (ECS) and recorded by patch-clamp technique. […] Each coverslip was recorded only once with different drug exposures. […]

[9] = biological target: T3, hTRPM2 R1433A (Homo sapiens, UniProt O94759, R1433A); assay: Whole-cell patch-clamp, C-terminal NUDT9-H domain mutant; assay type: cell-based; conditions: bilirubin
T3 construct: expressed in transfected cells; host or cells: HEK293T cells, transient transfection, GFP cDNA co-transfected as a separate marker
T3 sequence (O94759 whole entry R1433A): as the sequence (O94759 whole entry) above, with R1433A counted along it
Experimental: as §1, with “All the cells were seeded on 96-well coverslips (3 x 3 mm, WHB) and cultured at 37 °C under a humidified atmosphere containing 5% CO2.” left out
as §2

[10] = biological target: T4, TRPM2-ΔN/ΔC (Homo sapiens, UniProt O94759); assay: Whole-cell patch-clamp, truncation mutant; assay type: cell-based; conditions: bilirubin
T4 construct: expressed in transfected cells; host or cells: HEK293T cells, transient transfection, GFP cDNA co-transfected as a separate marker
T4 sequence (O94759 1-1449 isoform O94759-2): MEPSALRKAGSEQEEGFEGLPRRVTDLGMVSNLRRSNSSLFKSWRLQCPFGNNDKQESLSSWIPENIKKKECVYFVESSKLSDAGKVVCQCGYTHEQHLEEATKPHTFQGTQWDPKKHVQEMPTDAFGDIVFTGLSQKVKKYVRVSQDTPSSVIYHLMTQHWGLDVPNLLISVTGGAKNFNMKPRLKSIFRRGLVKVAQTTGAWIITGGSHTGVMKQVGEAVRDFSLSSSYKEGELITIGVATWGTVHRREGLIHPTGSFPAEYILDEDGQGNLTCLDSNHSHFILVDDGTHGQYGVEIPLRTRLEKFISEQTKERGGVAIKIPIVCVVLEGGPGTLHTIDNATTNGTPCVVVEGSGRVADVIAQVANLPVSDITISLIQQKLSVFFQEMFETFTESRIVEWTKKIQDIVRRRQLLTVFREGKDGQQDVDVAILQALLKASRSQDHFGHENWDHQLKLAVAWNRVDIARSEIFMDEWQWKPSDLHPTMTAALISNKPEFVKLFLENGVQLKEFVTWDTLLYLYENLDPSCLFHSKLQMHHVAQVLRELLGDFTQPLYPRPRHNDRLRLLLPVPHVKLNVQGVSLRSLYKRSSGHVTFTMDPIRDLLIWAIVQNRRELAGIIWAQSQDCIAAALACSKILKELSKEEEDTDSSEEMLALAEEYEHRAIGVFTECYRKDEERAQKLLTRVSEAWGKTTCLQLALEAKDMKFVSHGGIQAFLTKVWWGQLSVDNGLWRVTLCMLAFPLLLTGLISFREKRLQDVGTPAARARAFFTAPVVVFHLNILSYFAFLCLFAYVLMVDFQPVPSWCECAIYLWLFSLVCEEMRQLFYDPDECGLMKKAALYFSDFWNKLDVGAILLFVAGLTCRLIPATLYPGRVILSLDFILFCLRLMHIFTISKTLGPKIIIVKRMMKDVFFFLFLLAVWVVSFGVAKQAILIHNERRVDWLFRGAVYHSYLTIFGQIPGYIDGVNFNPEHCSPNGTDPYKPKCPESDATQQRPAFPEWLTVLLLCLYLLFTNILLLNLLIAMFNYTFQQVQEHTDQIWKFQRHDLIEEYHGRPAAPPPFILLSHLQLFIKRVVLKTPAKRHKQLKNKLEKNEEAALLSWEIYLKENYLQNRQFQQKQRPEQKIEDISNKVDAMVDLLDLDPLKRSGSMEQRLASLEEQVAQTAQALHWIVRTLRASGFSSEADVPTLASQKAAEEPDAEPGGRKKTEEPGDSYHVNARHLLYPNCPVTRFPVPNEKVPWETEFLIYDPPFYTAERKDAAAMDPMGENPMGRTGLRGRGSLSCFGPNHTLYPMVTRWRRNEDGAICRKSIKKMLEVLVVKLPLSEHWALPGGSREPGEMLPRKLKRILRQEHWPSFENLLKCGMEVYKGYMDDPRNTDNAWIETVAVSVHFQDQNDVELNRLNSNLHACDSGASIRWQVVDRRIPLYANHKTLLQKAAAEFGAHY
Experimental: as §1, with “All the cells were seeded on 96-well coverslips (3 x 3 mm, WHB) and cultured at 37 °C under a humidified atmosphere containing 5% CO2.” left out
as §2

[11] = system: tMCAO Trpm2−/− mice; assay: tMCAO ischemia model, infarct volume by TTC staining, Trpm2-/- mice; assay type: in vivo, mouse; conditions: 24 h after tMCAO
[12] = biological target: T5, hTRPM2 K928A/D1069A double mutant (Homo sapiens, UniProt O94759, D1069A/K928A); assay: Whole-cell patch-clamp, bilirubin-binding cavity double mutant; assay type: cell-based; conditions: 9 μM extracellular
T5 construct: expressed in transfected cells; host or cells: HEK293T cells, transient transfection, GFP cDNA co-transfected as a separate marker
T5 sequence (O94759 whole entry K928A/D1069A): as the sequence (O94759 whole entry) above, with K928A, D1069A counted along it
Experimental: as §1, with “All the cells were seeded on 96-well coverslips (3 x 3 mm, WHB) and cultured at 37 °C under a humidified atmosphere containing 5% CO2.” left out
as §2

[13] = system: layer 5 cortical pyramidal neurons from adult Trpm2+/+ mice; assay: Whole-cell current-clamp, intrinsic excitability in brain slices, Trpm2+/+; assay type: cell-based, mouse
[14] = system: layer 5 cortical pyramidal neurons from adult Trpm2−/− mice; assay: Whole-cell current-clamp, intrinsic excitability in brain slices, Trpm2-/-; assay type: cell-based, mouse
[15] = system: cortical pyramidal neurons from D1066A KI mice; assay: Whole-cell current-clamp, intrinsic excitability in brain slices, D1066A KI; assay type: cell-based, mouse; conditions: prolonged perfusion time

C=CC1=C(C)/C(=C/c2[nH]c(Cc3[nH]c(/C=C4\NC(=O)C(C)=C4C=C)c(C)c3CCC(=O)O)c(CCC(=O)O)c2C)NC1=O [bilirubin, Bilirubin]
infarct volume ([1]; Trpm2+/+ mice, bilirubin 50 μg/g i.p. 30 min prior to 30 min tMCAO, n = 14): 55.31% ± 3.68% | severity of brain damage, Bil group vs Ctrl group ([1]; day 7 after tMCAO): significantly higher | infarct volume ([1]; female Trpm2+/+ mice, n = 4): 49.56 ± 7.40% | infarct volume ([1]; male Trpm2+/+ mice, n = 10): 57.61 ± 4.24% | magnitude of the TRPM2 currents evoked by voltage ramps ([2]; bilirubin 9 μM, −100 to +100 mV, control solution): increased | activation of TRPM2 currents ([2]; bilirubin in the presence of PJ-34 (10 μM)): remained effective | TRPM2 currents ([2]; bilirubin, intracellular ADPR 5 μM (subthreshold)): increased TRPM2 currents | TRPM2 currents ([2]; bilirubin, intracellular ADPR 500 μM (saturated)): failed to do so | activation of the TRPM2 channel ([2]; bilirubin, intracellular BAPTA 30 mM replacing EGTA): remained capable of activating | Hillslope ([2]; concentration-response fit with the Hill equation, n = 4): 1.0 | EC50 ([2]; concentration-response fit with the Hill equation, n = 4, read-out: EC50 for evoked TRPM2 currents): 1920 nM | activation of mutant TRPM2 currents [3]: effectively activated | single-channel currents ([4]; bilirubin 300 nM, at −40 mV, outside-out): −2.02 ± 0.05 pA | opening probability (Po) ([4]; bilirubin perfusion, n = 12): significantly increased | slope conductance (single-channel) ([4]; bilirubin-driven current-voltage relationship, −80 to +80 mV, n = 4–7): 76.29 ± 7.85 pS | serum and CSF UCB concentration, Bil group vs Ctrl group ([5]; D1066A KI mice, 24 h after tMCAO, n = 9): comparable | UCB concentration in serum and CSF, Bil group vs Ctrl group ([5]; Trpm2+/+ mice, 24 h after tMCAO): much higher | level of UCB, Bil group vs Ctrl group ([5]; Trpm2−/− mice, 24 h after tMCAO): did not change | TB levels in serum and CSF vs saline ([5]; mice injected with bilirubin 50 μg/g i.p., after tMCAO): markedly higher | mortality of cortical neurons [6]: 60.84% ± 2.13% | activation of TRPM2 currents by bilirubin [7]: did not prevent the activation | activation of mutant TRPM2 currents [8]: remained responsive | activation of mutant TRPM2 currents [9]: remained responsive | activation of mutant TRPM2 currents [10]: eliminated the activation of the TRPM2 channel by ADPR but not by bilirubin | infarct volume ([11]; Trpm2−/− mice, bilirubin 50 μg/g i.p. 30 min prior to 30 min tMCAO, n = 15): 25.69% ± 4.46% | infarct volume ([11]; female Trpm2−/− mice, n = 5): 30.63 ± 8.71% | infarct volume ([11]; male Trpm2−/− mice, n = 10): 23.22 ± 5.25% | activation of mutant TRPM2 currents [12]: completely lost its ability to activate | excitability of cortical neurons ([13]; Trpm2+/+ slices, bilirubin for 5 and 20 min, synaptic blockers present): significantly increased | spike amplitude ([13]; Trpm2+/+, 20 min after bilirubin application, 2.5 nA current in 0.3 ms): significantly attenuated | excitability of cortical neurons ([14]; Trpm2−/− slices, bilirubin for 5 and 20 min, synaptic blockers present): absent | spike amplitude ([14]; Trpm2−/−, 20 min after bilirubin application, 2.5 nA current in 0.3 ms): significantly attenuated | hyperexcitability in cortical pyramidal neurons [15]: did not induce the hyperexcitability

O=C(O)c1ccccc1Nc1cccc(C(F)(F)F)c1 [FFA, flufenamic acid]
bilirubin-increased opening probability (Po) ([4]; FFA co-application, n = 12): reversed
